According to ChEMBL document CHEMBL1201862, “PubChem BioAssay data set” (2004):
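Values below derive from 48-hour exposures of cells grown in 96-well plates, with endpoints linearly interpolated between the two concentrations bracketing the appropriate inhibition level. GI50 marks 50% less growth.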 Calls of active or inactive are those of the source. Rule as the data show it: active = GI50 up to about 1.1 µM and inactive = higher.

How the values were obtained:
Test in all cases: inhibition of tumour cell growth, NCI panel, 48 h
A549 = tested on: A549
PC-3 = tested on: PC-3
SR = tested on: SR
KM12 = tested on: KM12
LOX IMVI = tested on: LOX IMVI
A498 = tested on: A498
UO-31 = tested on: UO-31
OVCAR-5 = tested on: OVCAR-5
U-251 = tested on: U-251
BT-549 = tested on: BT-549
COLO 205 = tested on: COLO 205
HCT-15 = tested on: HCT-15
SNB-19 = tested on: SNB-19
HOP-62 = tested on: HOP-62
OVCAR-8 = tested on: OVCAR-8
IGROV-1 = tested on: IGROV-1
NCI-H23 = tested on: NCI-H23
UACC-257 = tested on: UACC-257
CCRF-CEM = tested on: CCRF-CEM
Hs-578T = tested on: Hs-578T
M14 = tested on: M14
DU-145 = tested on: DU-145
RXF 393 = tested on: RXF 393
SN12C = tested on: SN12C
NCI-H226 = tested on: NCI-H226
Malme-3M = tested on: Malme-3M
SF-295 = tested on: SF-295
SK-OV-3 = tested on: SK-OV-3
NCI-H522 = tested on: NCI-H522
HCC 2998 = tested on: HCC 2998
T47D = tested on: T47D
ACHN = tested on: ACHN
UACC-62 = tested on: UACC-62
MDA-N = tested on: MDA-N
SK-MEL-2 = tested on: SK-MEL-2
HT-29 = tested on: HT-29
SNB-75 = tested on: SNB-75
HCT-116 = tested on: HCT-116
MCF7 = tested on: MCF7
SF-539 = tested on: SF-539
NCI/ADR-RES = tested on: NCI/ADR-RES
MDA-MB-435 = tested on: MDA-MB-435
K562 = tested on: K562
OVCAR-4 = tested on: OVCAR-4
CAKI-1 = tested on: CAKI-1
EKVX = tested on: EKVX
OVCAR-3 = tested on: OVCAR-3
SK-MEL-5 = tested on: SK-MEL-5
HL-60 = tested on: HL-60
NCI-H460 = tested on: NCI-H460
TK-10 = tested on: TK-10
786-0 = tested on: 786-0
HOP-92 = tested on: HOP-92
SW-620 = tested on: SW-620
SK-MEL-28 = tested on: SK-MEL-28
MOLT-4 = tested on: MOLT-4
MDA-MB-231 = tested on: MDA-MB-231
RPMI-8226 = tested on: RPMI-8226
SF-268 = tested on: SF-268

O=C(c1cccs1)N1CCN(C(=O)c2cccs2)C1=S
GI50 (A549): 3.96 µM (inactive) | GI50 (PC-3): 4.5 µM (inactive) | GI50 (SR): 3.43 µM (inactive) | GI50 (KM12): 3.23 µM (inactive) | GI50 (LOX IMVI): 2.86 µM (inactive) | GI50 (A498): 15.1 µM (inactive) | GI50 (UO-31): 2.33 µM (inactive) | GI50 (OVCAR-5): 16 µM (inactive) | GI50 (U-251): 5.92 µM (inactive) | GI50 (BT-549): 5.4 µM (inactive) | GI50 (COLO 205): 7.35 µM (inactive) | GI50 (HCT-15): 3.99 µM | GI50 (SNB-19): 12.4 µM (inactive) | GI50 (HOP-62): 5.04 µM (inactive) | GI50 (OVCAR-8): 5.32 µM (inactive) | GI50 (IGROV-1): 6.7 µM (inactive) | GI50 (NCI-H23): 12.7 µM (inactive) | GI50 (UACC-257): 6.19 µM (inactive) | GI50 (CCRF-CEM): 2.69 µM (inactive) | GI50 (Hs-578T): 10.7 µM (inactive) | GI50 (M14): 3.83 µM (inactive) | GI50 (DU-145): 2.51 µM (inactive) | GI50 (RXF 393): 2.6 µM (inactive) | GI50 (SN12C): 2.95 µM (inactive) | GI50 (NCI-H226): 15.8 µM (inactive) | GI50 (Malme-3M): 9.38 µM (inactive) | GI50 (SF-295): 16.4 µM (inactive) | GI50 (SK-OV-3): 15.6 µM (inactive) | GI50 (NCI-H522): 3.98 µM (inactive) | GI50 (HCC 2998): 7.96 µM (inactive) | GI50 (T47D): 4.15 µM (inactive) | GI50 (ACHN): 7.41 µM (inactive) | GI50 (UACC-62): 5.89 µM (inactive) | GI50 (MDA-N): 3.69 µM (inactive) | GI50 (SK-MEL-2): 11.9 µM (inactive) | GI50 (HT-29): 6.71 µM (inactive) | GI50 (SNB-75): 2.28 µM (inactive) | GI50 (HCT-116): 8.77 µM (inactive) | GI50 (MCF7): 3.18 µM (inactive) | GI50 (SF-539): 1.81 µM (inactive) | GI50 (NCI/ADR-RES): 16.7 µM (inactive) | GI50 (MDA-MB-435): 2.88 µM (inactive) | GI50 (K562): 3.05 µM (inactive) | GI50 (OVCAR-4): 16.9 µM (inactive) | GI50 (CAKI-1): 3.68 µM (inactive) | GI50 (EKVX): 13.9 µM (inactive) | GI50 (OVCAR-3): 2.94 µM (inactive) | GI50 (SK-MEL-5): 4.59 µM (inactive) | GI50 (HL-60): 2.23 µM (inactive) | GI50 (NCI-H460): 6.75 µM (inactive) | GI50 (TK-10): 5.4 µM (inactive) | GI50 (786-0): 2.75 µM (inactive) | GI50 (HOP-92): 7.19 µM (inactive) | GI50 (SW-620): 5.01 µM (inactive) | GI50 (SK-MEL-28): 5.13 µM (inactive) | GI50 (MOLT-4): 3.24 µM (inactive) | GI50 (MDA-MB-231): 6.38 µM (inactive) | GI50 (RPMI-8226): 1.63 µM (inactive) | GI50 (SF-268): 5.28 µM (inactive)

COc1ccc(C(CC(C)=O)c2c(O)c3ccccc3oc2=O)cc1OC (configuration not stated)
GI50 (A549): > 100 µM (inactive) | GI50 (PC-3): > 100 µM (inactive) | GI50 (SR): > 100 µM (inactive) | GI50 (KM12): > 100 µM (inactive) | GI50 (LOX IMVI): > 100 µM (inactive) | GI50 (A498): > 100 µM (inactive) | GI50 (UO-31): > 100 µM (inactive) | GI50 (OVCAR-5): > 100 µM (inactive) | GI50 (U-251): > 100 µM (inactive) | GI50 (BT-549): > 100 µM (inactive) | GI50 (COLO 205): > 100 µM (inactive) | GI50 (HCT-15): > 100 µM | GI50 (SNB-19): > 100 µM (inactive) | GI50 (HOP-62): > 100 µM (inactive) | GI50 (OVCAR-8): > 100 µM (inactive) | GI50 (IGROV-1): > 100 µM (inactive) | GI50 (NCI-H23): > 100 µM (inactive) | GI50 (UACC-257): > 100 µM (inactive) | GI50 (CCRF-CEM): > 100 µM (inactive) | GI50 (Hs-578T): > 100 µM (inactive) | GI50 (M14): > 100 µM (inactive) | GI50 (DU-145): > 100 µM (inactive) | GI50 (RXF 393): > 100 µM (inactive) | GI50 (SN12C): > 100 µM (inactive) | GI50 (NCI-H226): > 100 µM (inactive) | GI50 (Malme-3M): > 100 µM (inactive) | GI50 (SF-295): > 100 µM (inactive) | GI50 (SK-OV-3): > 100 µM (inactive) | GI50 (NCI-H522): > 100 µM (inactive) | GI50 (HCC 2998): > 100 µM (inactive) | GI50 (T47D): > 100 µM (inactive) | GI50 (ACHN): > 100 µM (inactive) | GI50 (UACC-62): > 100 µM (inactive) | GI50 (MDA-N): > 100 µM (inactive) | GI50 (SK-MEL-2): > 100 µM (inactive) | GI50 (HT-29): > 100 µM (inactive) | GI50 (SNB-75): > 100 µM (inactive) | GI50 (HCT-116): > 100 µM (inactive) | GI50 (MCF7): > 100 µM (inactive) | GI50 (SF-539): > 100 µM (inactive) | GI50 (NCI/ADR-RES): > 100 µM (inactive) | GI50 (MDA-MB-435): > 100 µM (inactive) | GI50 (K562): > 100 µM (inactive) | GI50 (OVCAR-4): > 100 µM (inactive) | GI50 (CAKI-1): > 100 µM (inactive) | GI50 (EKVX): > 100 µM (inactive) | GI50 (OVCAR-3): > 100 µM (inactive) | GI50 (SK-MEL-5): > 100 µM (inactive) | GI50 (HL-60): > 100 µM (inactive) | GI50 (NCI-H460): > 100 µM (inactive) | GI50 (TK-10): > 100 µM (inactive) | GI50 (786-0): > 100 µM (inactive) | GI50 (HOP-92): > 100 µM (inactive) | GI50 (SW-620): > 100 µM (inactive) | GI50 (SK-MEL-28): > 100 µM (inactive) | GI50 (MOLT-4): > 100 µM (inactive) | GI50 (MDA-MB-231): > 100 µM (inactive) | GI50 (RPMI-8226): > 100 µM (inactive) | GI50 (SF-268): > 100 µM (inactive)

Cc1c(C)n(-c2ccccc2)c2nc([S+](C)[O-])nc([S+](C)[O-])c12 (configuration not stated)
GI50 (A549): 16.6 µM (inactive) | GI50 (PC-3): 7 µM (inactive) | GI50 (SR): 0.809 µM (active) | GI50 (KM12): 13.3 µM (inactive) | GI50 (LOX IMVI): 1.81 µM (inactive) | GI50 (A498): 13.1 µM (inactive) | GI50 (UO-31): 7.74 µM (inactive) | GI50 (OVCAR-5): 15.3 µM (inactive) | GI50 (U-251): 8.53 µM (inactive) | GI50 (BT-549): 0.755 µM (active) | GI50 (COLO 205): 1.75 µM (inactive) | GI50 (HCT-15): 5 µM | GI50 (SNB-19): 17.1 µM (inactive) | GI50 (HOP-62): 18.4 µM (inactive) | GI50 (OVCAR-8): 4.09 µM (inactive) | GI50 (IGROV-1): 3.79 µM (inactive) | GI50 (NCI-H23): 13.9 µM (inactive) | GI50 (UACC-257): 11.8 µM (inactive) | GI50 (CCRF-CEM): 1.55 µM (inactive) | GI50 (Hs-578T): 25.5 µM (inactive) | GI50 (M14): 2.21 µM (inactive) | GI50 (DU-145): 14.4 µM (inactive) | GI50 (RXF 393): 2.92 µM (inactive) | GI50 (SN12C): 8.28 µM (inactive) | GI50 (NCI-H226): 17.9 µM (inactive) | GI50 (Malme-3M): 1.98 µM (inactive) | GI50 (SF-295): 17.6 µM (inactive) | GI50 (SK-OV-3): 18.5 µM (inactive) | GI50 (NCI-H522): 1.89 µM (inactive) | GI50 (HCC 2998): 15.2 µM (inactive) | GI50 (T47D): 2.44 µM (inactive) | GI50 (ACHN): 5.83 µM (inactive) | GI50 (UACC-62): 6.03 µM (inactive) | GI50 (MDA-N): 3.68 µM (inactive) | GI50 (SK-MEL-2): 4.68 µM (inactive) | GI50 (HT-29): 6.05 µM (inactive) | GI50 (SNB-75): 9.1 µM (inactive) | GI50 (HCT-116): 2.14 µM (inactive) | GI50 (MCF7): 2.16 µM (inactive) | GI50 (SF-539): 3.85 µM (inactive) | GI50 (NCI/ADR-RES): 22.9 µM (inactive) | GI50 (MDA-MB-435): 3.1 µM (inactive) | GI50 (K562): 2.09 µM (inactive) | GI50 (OVCAR-4): 4.85 µM (inactive) | GI50 (CAKI-1): 1.34 µM (inactive) | GI50 (EKVX): 6.92 µM (inactive) | GI50 (OVCAR-3): 2.61 µM (inactive) | GI50 (SK-MEL-5): 2.35 µM (inactive) | GI50 (HL-60): 1.38 µM (inactive) | GI50 (NCI-H460): 18.8 µM (inactive) | GI50 (TK-10): 1.52 µM (inactive) | GI50 (786-0): 2.56 µM (inactive) | GI50 (HOP-92): 1.96 µM (inactive) | GI50 (SW-620): 1.79 µM (inactive) | GI50 (SK-MEL-28): 4.15 µM (inactive) | GI50 (MOLT-4): 2.33 µM (inactive) | GI50 (MDA-MB-231): 4.74 µM (inactive) | GI50 (RPMI-8226): 1.66 µM (inactive) | GI50 (SF-268): 7.14 µM (inactive)
